Assay results: patent publication US9902728B2, “Pyrrolo and pyrazolopyrimidines as ubiquitin-specific protease 7 inhibitors” (Forma Therapeutics, Inc., priority 2014, dated 2018)

molecular target: T1, USP7 (Homo sapiens, UniProt Q93009); assay: USP7 Assay A (Ubitquin-Rhodamine 110 Assay); format: biochemical; settings: USP7 activity in USP7 assay A and B (table does not say which assay per compound); read-out: USP7_IC50
T1 construct: USP7, construct USP7 (208-1102) 6*His, Viva Biotech; 6xHis (C); purchased Viva Biotech
T1 sequence (Q93009 208-1102): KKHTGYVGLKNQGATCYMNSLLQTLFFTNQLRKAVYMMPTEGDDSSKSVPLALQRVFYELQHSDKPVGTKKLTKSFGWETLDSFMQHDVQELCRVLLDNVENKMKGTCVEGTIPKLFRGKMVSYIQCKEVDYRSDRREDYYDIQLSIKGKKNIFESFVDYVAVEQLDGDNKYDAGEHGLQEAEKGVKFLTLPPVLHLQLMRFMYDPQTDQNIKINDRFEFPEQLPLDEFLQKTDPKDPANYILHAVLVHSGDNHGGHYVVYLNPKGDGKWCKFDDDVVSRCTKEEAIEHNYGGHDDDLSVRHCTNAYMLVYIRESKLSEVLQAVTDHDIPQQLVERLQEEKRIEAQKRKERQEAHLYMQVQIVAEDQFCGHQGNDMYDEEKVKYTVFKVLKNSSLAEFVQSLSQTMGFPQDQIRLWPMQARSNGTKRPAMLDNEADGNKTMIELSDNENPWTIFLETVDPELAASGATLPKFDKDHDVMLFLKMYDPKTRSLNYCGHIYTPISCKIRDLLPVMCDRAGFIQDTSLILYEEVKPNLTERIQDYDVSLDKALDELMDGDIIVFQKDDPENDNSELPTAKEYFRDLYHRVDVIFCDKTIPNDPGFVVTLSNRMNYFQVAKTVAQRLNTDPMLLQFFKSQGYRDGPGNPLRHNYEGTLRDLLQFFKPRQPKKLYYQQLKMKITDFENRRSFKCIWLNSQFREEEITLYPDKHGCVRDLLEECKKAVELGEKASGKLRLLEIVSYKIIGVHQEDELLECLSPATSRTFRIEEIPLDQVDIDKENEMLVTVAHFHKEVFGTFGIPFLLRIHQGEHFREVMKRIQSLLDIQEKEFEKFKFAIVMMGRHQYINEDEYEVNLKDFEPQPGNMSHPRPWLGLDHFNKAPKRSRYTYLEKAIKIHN
Summary of the method: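 Ub-Rh110 cleavage in 20 mM Tris-HCl pH 8.0 with 1 mM GSH, 0.03% BGG, 0.01% Triton X-100; compound preincubated with enzyme 30 min before substrate.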

Compound	IC50
O=C(C1CCC(Oc2ncccn2)CC1)N1CCC(O)(Cn2cnc3c(cnn3-c3ccc(F)cc3)c2=O)CC1 (stereo not drawn) [Compound I-747]	1000 to 10000 nM
Cc1ncc(C(=O)N2CCC(O)(Cn3cnc4c(ccn4-c4ccc(F)cc4)c3=O)CC2)o1 [Compound I-1077]	200 to 1000 nM
CN1CC2CC1CN2c1ccc(C(=O)N2CCC(O)(Cn3cnc4c(cnn4-c4ccc(F)cc4)c3=O)CC2)cc1 (stereo not drawn) [Compound I-604]	1000 to 10000 nM
Cc1ccn(-c2ccc(-n3ncc4c(=O)n(CC5(O)CCN(C(=O)C6(C)COC6)CC5)cnc43)cc2)n1 [Compound I-1711]	1000 to 10000 nM
O=C(C1CCC(Nc2ccccc2)CC1)N1CCC(O)(Cn2cnc3c(cnn3-c3ccc(F)cc3)c2=O)CC1 (stereo not drawn) [Compound I-767]	200 to 1000 nM
O=C(C1CCC(Oc2cccc(F)n2)CC1)N1CCC(O)(Cn2cnc3c(cnn3-c3ccccc3)c2=O)CC1 (stereo not drawn) [Compound I-741]	< 200 nM
CC1(C(=O)N2CCC(O)(Cn3cnc4c(cnn4-c4ccc(-n5ccc(F)n5)cc4)c3=O)CC2)CC1 [Compound I-1754]	200 to 1000 nM
Cn1cc(OC2CCN(C(=O)N3CCC(O)(Cn4cnc5c(cnn5-c5ccc(F)cc5)c4=O)CC3)CC2)cn1 [Compound I-923]	1000 to 10000 nM
O=C(C1CCC(Oc2ncccn2)CC1)N1CCC(O)(Cn2cnc3c(cnn3-c3ccc(F)cc3)c2=O)CC1 (stereo not drawn) [Compound I-748]	200 to 1000 nM
CN1CCN(c2ccc(-n3ncc4c(=O)n(CC5(O)CCN(C(=O)C6(C)CC6)CC5)cnc43)cc2)CC1 [Compound I-1641]	< 200 nM
CC1(C(=O)N2CCC(O)(Cn3cnc4c(cnn4-c4ccc(OCC5(F)CCC5)cc4)c3=O)CC2)CC1 [Compound I-1119]	< 200 nM
CN1CCN(c2cccc(-n3ccc4c(=O)n(CC5(O)CCN(C(=O)C[C@@H](C(F)F)n6cccn6)CC5)cnc43)c2)CC1 [Compound I-793]	< 200 nM
CC1(C(=O)N2CCC(O)(Cn3cnc4c(cnn4-c4cccc(N5CC(N6CCOCC6)C5)c4)c3=O)CC2)CC1 [Compound I-1637]	200 to 1000 nM
CN1CCN(c2cnn(-c3ccc(-n4ncc5c(=O)n(CC6(O)CCN(C(=O)C7CC7)CC6)cnc54)cc3)c2)CC1 [Compound I-975, 5-[(1-cyclopropanecarbonyl-4-hydroxypiperidin-4-yl)methyl]-1-{4-[4-(4-methylpiperazin-1-yl)-1H-pyrazol-1-yl]phenyl}-1H,4H,5H-pyrazolo[3,4-d]pyrimidin-4-one]	200 to 1000 nM
Cc1ncc(C(=O)N2CCC(O)(Cn3cnc4c(cnn4-c4ccc(-n5cc(CO)cn5)cc4)c3=O)CC2)o1 [Compound I-1687]	< 200 nM
CC1(C(=O)N2CCC(O)(Cn3cnc4c(cnn4-c4ccc(N5CC(O)C5)cc4)c3=O)CC2)CC1 [Compound I-1677]	200 to 1000 nM
CC(C)(O)Cn1cc(-c2ccc(-n3ncc4c(=O)n(CC5(O)CCN(C(=O)c6ccc(F)cc6)CC5)cnc43)cc2)cn1 [Compound I-1617]	200 to 1000 nM
CN1CC[C@@H](Oc2ccc(-c3ccc(-n4ncc5c(=O)n(CC6(O)CCN(C(=O)C7CC7)CC6)cnc54)cc3)cc2)C1 [Compound I-679]	< 200 nM

Compound	IC50
O=C(c1ccc(F)cc1)N1CCC(O)(Cn2cnc3c(cnn3-c3ccc(-c4cnn(C5CCOCC5)c4)cc3)c2=O)CC1 [Compound I-1614]	200 to 1000 nM
O=C(C1CC1)N1CCC(O)(Cn2cnc3c(ccn3-c3ccc(F)c(CN4CCCCC4)c3)c2=O)CC1 [Compound I-1010]	1000 to 10000 nM
O=C(C1CCC(Nc2cccc(F)n2)CC1)N1CCC(O)(Cn2cnc3c(cnn3-c3ccc(F)cc3)c2=O)CC1 (stereo not drawn) [Compound I-1023]	< 200 nM
CC1(C(=O)N2CCC(O)(Cn3cnc4c(cnn4-c4cccc(N5CCC(C6COC6)CC5)c4)c3=O)CC2)CC1 [Compound I-1691]	200 to 1000 nM
CC1(C(=O)N2CCC(O)(Cn3cnc4c(cnn4-c4cccc(N5CC(C6CCOCC6)C5)c4)c3=O)CC2)CC1 [Compound I-1732]	200 to 1000 nM
O=C(C1CCC(Oc2cccc(N3CCC3)n2)CC1)N1CCC(O)(Cn2cnc3c(cnn3-c3ccc(F)cc3)c2=O)CC1 (stereo not drawn) [Compound I-1018]	< 200 nM
O=C(C[C@@H](C(F)F)n1cc(Cl)cn1)N1CCC(O)(Cn2cnc3c(cnn3-c3ccc(F)cc3)c2=O)CC1 [Compound I-734]	> 10000 nM
CC1(C(=O)N2CCC(O)(Cn3cnc4c(cnn4-c4ccc(-c5cnn(C(F)F)c5)cc4)c3=O)CC2)CC1 [Compound I-489]	200 to 1000 nM
C[C@@H]1CN(c2cccc(-n3ncc4c(=O)n(CC5(O)CCN(C(=O)C6(C)CC6)CC5)cnc43)c2)CCN1C [Compound I-1689]	< 200 nM
CC(=O)N1CC2CC1CN2c1ccc(-n2ncc3c(=O)n(CC4(O)CCN(C(=O)C5(C)CC5)CC4)cnc32)cc1 (stereo not drawn) [Compound I-1749]	200 to 1000 nM
Cn1cc(OC2CCC(C(=O)N3CCC(O)(Cn4cnc5c(cnn5-c5ccc(F)cc5)c4=O)CC3)CC2)cn1 (stereo not drawn) [Compound I-757]	200 to 1000 nM
O=C(c1ccc(-n2cnnc2)cc1)N1CCC(O)(Cn2cnc3c(cnn3-c3ccc(Cl)cc3)c2=O)CC1 [Compound I-919]	1000 to 10000 nM
CC1(C(=O)N2CCC(O)(Cn3cnc4c(cnn4-c4ccc(-n5cc(C(F)(F)F)cn5)cc4)c3=O)CC2)CCC1 [Compound I-1717]	< 200 nM
CN[C@H]1CCN(c2ccc(-c3ccc(-n4ncc5c(=O)n(CC6(O)CCN(C(=O)C7CC7)CC6)cnc54)cc3)cc2)C1 [Compound I-689]	< 200 nM
O=C(C1CCC(Oc2cccnc2F)CC1)N1CCC(O)(Cn2cnc3c(cnn3-c3ccccc3)c2=O)CC1 (stereo not drawn) [Compound I-1017]	200 to 1000 nM
CN1CCC(Oc2ccc(C(=O)N3CCC(O)(Cn4cnc5c(cnn5-c5ccc(Cl)cc5)c4=O)CC3)cc2)CC1 [Compound I-1096]	1000 to 10000 nM
CC1(C(=O)N2CCC(O)(Cn3cnc4c(cnn4-c4cccc(OC5CCC(F)(F)CC5)c4)c3=O)CC2)CC1 [Compound I-1047]	< 200 nM

same assay, conditions: USP7 assay A and B (table does not say which assay per compound); Ubiquitin-Rhodamine 110 substrate; read-out: USP7_IC50

Compound	IC50
Cn1ncc2c(=O)n(CC3(O)CCN(C(=O)c4ccc(-c5ccc(C(=O)N6CCCCC6)cc5)cc4Cl)CC3)cnc21 [Compound I-55]	1000 to 10000 nM

same assay, conditions: USP7 assay A and B (table does not say which assay per compound); read-out: USP7_IC50

Compound	IC50
O=C(c1ccc(C2(O)CC2)cc1)N1CCC(O)(Cn2cnc3c(cnn3-c3ccccc3)c2=O)CC1 [Compound I-467]	1000 to 10000 nM
O=C(C1CC1)N1CCC(O)(Cn2cnc3c(cnn3-c3ccc(Cl)cc3)c2=O)CC1 [Compound I-35]	1000 to 10000 nM
Cn1ncc2c(=O)n(CC3(O)CCN(C(=O)c4ccc(NS(=O)(=O)c5ccccc5)cc4)CC3)cnc21 [Compound I-111]	1000 to 10000 nM
O=C(C1CC1)N1CCC(O)(Cn2cnc3c(cnn3-c3cccc(N4CCCC4)c3)c2=O)CC1 [Compound I-1200]	200 to 1000 nM
COc1ccc(C(=O)N2CCC(O)(C(C)n3cnc4c(cnn4-c4ccc(F)cc4)c3=O)CC2)cc1 (single isomer, unassigned) [Compound I-615]	200 to 1000 nM
O=C(C1CC1)N1CCC(O)(Cn2cnc3c(cnn3-c3ccc(F)cc3)c2=O)CC1 [Compound I-38]	1000 to 10000 nM
O=C(c1ccc(F)cc1)N1CCC(O)(Cn2cnc3c(cnn3-c3ccc(F)cc3)c2=O)CC1 [Compound I-268]	1000 to 10000 nM
C=CS(=O)(=O)Nc1ccccc1-c1ccc(C(=O)N2CCC(O)(Cn3cnc4c(cnn4C)c3=O)CC2)cc1 [Compound I-45, N-(4′-(4-Hydroxy-4-((1-methyl-4-oxo-1,4-dihydro-5H-pyrazolo[3,4-d]pyrimidin-5-yl)methyl)piperidine-1-carbonyl)-[1,1′-biphenyl]-2-yl)ethenesulfonamide]	200 to 1000 nM
CN(C)C(=O)N1CCC(O)(Cn2cnc3c(cnn3-c3ccc(-n4cc(C(F)(F)F)cn4)cc3)c2=O)CC1 [Compound I-1526]	1000 to 10000 nM
CC(CC(=O)N1CCC(O)(Cn2cnc3c(cnn3-c3ccc(-c4ccc(F)cc4)cc3)c2=O)CC1)n1cccn1 (stereo not drawn) [Compound I-652]	200 to 1000 nM
CO[C@]1(C)CCN(c2cc(-n3ncc4c(=O)n(CC5(O)CCN(C(=O)C6CC6)CC5)cnc43)ccc2F)C1 [Compound I-972]	1000 to 10000 nM
O=C(c1cc2n(n1)CCCO2)N1CCC(O)(Cn2cnc3c(cnn3-c3ccc(Cl)cc3)c2=O)CC1 [Compound I-1569]	1000 to 10000 nM
C=CS(=O)(=O)Nc1ccc(C(=O)N2CCC(O)(Cn3cnc4c(cnn4-c4ccccc4)c3=O)CC2)cc1 [Compound I-173]	200 to 1000 nM
CC(O)(c1ccc(C(=O)N2CCC(O)(Cn3cnc4c(cnn4-c4ccccc4)c3=O)CC2)cc1)C(F)(F)F (stereo not drawn) [Compound I-291]	1000 to 10000 nM
CNS(=O)(=O)Nc1ccc(-n2ncc3c(=O)n(CC4(O)CCN(C(=O)C5CC5)CC4)cnc32)cc1 [Compound I-504, 5-[(1-Cyclopropanecarbonyl-4-hydroxypiperidin-4-yl)methyl]-1-{4-[(methylsulfamoyl)amino]phenyl}-1H,4H,5H-pyrazolo[3,4-d]pyrimidin-4-one]	1000 to 10000 nM
Nc1ccc(-n2ncc3c(=O)n(CC4(O)CCN(C(=O)C5CC5)CC4)cnc32)cc1 [Compound I-965]	1000 to 10000 nM
CC(C)OCCNc1ccc(-n2ncc3c(=O)n(CC4(O)CCN(C(=O)C5CC5)CC4)cnc32)cc1 [Compound I-1149]	1000 to 10000 nM
CC(CC(=O)N1CCC(O)(Cn2cnc3c(cnn3C)c2=O)CC1)n1cccc1 (stereo not drawn) [Compound I-105]	200 to 1000 nM
C[C@H](CC(=O)N1CCC(O)(Cn2cnc3c(cnn3-c3ccc(F)cc3)c2=O)CC1)N1CC2CCCC2C1 (stereo partly drawn) [Compound I-525]	> 10000 nM
C=CS(=O)(=O)NCC(Cc1ccccc1)C(=O)N1CCC(O)(Cn2cnc3c(cnn3C)c2=O)CC1 (stereo not drawn) [Compound I-170]	> 10000 nM
O=C(Nc1ccc(-n2ncc3c(=O)n(CC4(O)CCN(C(=O)C5CC5)CC4)cnc32)cc1)c1ccccn1 [Compound I-1383]	1000 to 10000 nM
CC1(C)CC(NC(=O)N2CCC(O)(Cn3cnc4c(cnn4-c4ccc(F)cc4)c3=O)CC2)C1 [Compound I-482]	> 10000 nM
CN(C)CCN(C)c1cccc(-n2ncc3c(=O)n(CC4(O)CCN(C(=O)c5ccc(F)cc5)CC4)cnc32)c1 [Compound I-823]	200 to 1000 nM
Cn1ncc2c(=O)n(CC3(O)CCN(C(=O)c4ccc(Nc5ccccc5)cc4)CC3)cnc21 [Compound I-13]	1000 to 10000 nM
